Active and inactive are the calls of the source. The rule behind the calls is not given here.
How the values were obtained:
Bel-7402 = assay: Cytotoxicity against human Bel7402 cells at 10 uM after 96 hrs by MTT assay; assay type: functional, cell-based
Human alphaherpesvirus 1 = assay: Antiviral activity against Herpes simplex virus 1 at 10 uM; assay type: functional, organism-based
MCF7 = assay: Cytotoxicity against human MCF7 cells at 10 uM after 96 hrs by MTT assay; assay type: functional, cell-based
A549 = assay: Cytotoxicity against human A549 cells at 10 uM after 96 hrs by MTT assay; assay type: functional, cell-based
BGC-823 = assay: Cytotoxicity against human BGC823 cells at 10 uM after 96 hrs by MTT assay; assay type: functional, cell-based
HCT-8 = assay: Cytotoxicity against human HCT8 cells at 10 uM after 96 hrs by MTT assay; assay type: functional, cell-based
[1] = tested on: Human immunodeficiency virus 1; assay: Antiviral activity against HIV1 infected in 293T cells cotransfected with VSV-G at 10 uM after 48 hrs by ELISA; assay type: functional, organism-based
KETR3 = assay: Cytotoxicity against human Ketr3 cells at 10 uM after 96 hrs by MTT assay; assay type: functional, cell-based
Influenza A virus = assay: Antiviral activity against influenza A virus A/Hanfang/359/95 (H3N2) assessed as inhibition of virus-induced cytopathic effect in cell-based assay; assay type: functional, organism-based
[2] = Hepatoprotective activity in rat WB-F344 cells assessed as inhibition of DL-Galactosamine-induced toxicity at 10 uM incubated for 1 hr prior to DL-Galactosamine-challenge measured after 24 hrs by MTT assay; assay type: functional

SMILES	Activity (Bel-7402)	Activity (Human alphaherpesvirus 1)	Activity (MCF7)	Activity (A549)	Activity (BGC-823)	Activity (HCT-8)	Activity [1]	Activity (KETR3)	IC50 (Influenza A virus) [µM]	inhibition at 10 µM [2] [%]
N#CC[C@@]1(O)C(=O)Nc2ccccc21	inactive	inactive	inactive	inactive	inactive	inactive	inactive	inactive		
COc1cccc2[nH]cc(C(C#N)c3ccc(OC)c4c(CC#N)c[nH]c34)c12 (single isomer, unassigned)	inactive	inactive	inactive	inactive	inactive	inactive	inactive	inactive	3.7	
N#CCc1c[nH]c2ccccc12	inactive	inactive	inactive	inactive	inactive	inactive	inactive	inactive		
OC[C@H]1O[C@@H](Oc2c[nH]c3ccccc23)[C@H](O)[C@@H](O)[C@@H]1O	inactive	inactive	inactive	inactive	inactive	inactive	inactive	inactive		
COc1cccc2c1[C@@](O)(CC(N)=O)C(=O)N2	inactive	inactive	inactive	inactive	inactive	inactive	inactive	inactive		
NC(=O)[C@@H]1CC(=O)Nc2ccccc21	inactive	inactive	inactive	inactive	inactive	inactive	inactive	inactive		45
C[C@H]1OC2=C(NC1=O)C(=O)OCC2	inactive	inactive	inactive	inactive	inactive	inactive	inactive	inactive		
O=C1CC2(O)c3ccccc3N3C(=O)c4ccccc4N1C32 (stereo not drawn)										47
NC(=O)C[C@H]1C(=O)Nc2cccc(O)c21	inactive	inactive	inactive	inactive	inactive	inactive	inactive	inactive		
N#C/C=C1/C(=O)Nc2cccc(O)c21	inactive	inactive	inactive	inactive	inactive	inactive	inactive	inactive		
N#CC[C@@]1(O)C(=O)Nc2cccc(O)c21	inactive	inactive	inactive	inactive	inactive	inactive	inactive	inactive		
Nc1ccccc1C(=O)O[C@@H]1O[C@H](CO)[C@@H](O)[C@H](O)[C@H]1O	inactive	inactive	inactive	inactive	inactive	inactive	inactive	inactive		
O=C1C[C@]2(O)c3ccccc3N3C(=O)c4ccccc4N1[C@@H]32	inactive	inactive	inactive	inactive	inactive	inactive	inactive	inactive		
COC(=O)c1ccccc1NC(=O)c1c[nH]c2ccccc2c1=O	inactive	inactive	inactive	inactive	inactive	inactive	inactive	inactive		
O=C1/C(=C2\Nc3ccccc3C2=O)Nc2ccccc21	inactive	inactive	inactive	inactive	inactive	inactive	inactive	inactive		
COc1cccc2[nH]cc(CC#N)c12 [ARVELEXIN]	inactive	inactive	inactive	inactive	inactive	inactive	inactive	inactive	3.7	

SMILES	Activity (Bel-7402)	Activity (Human alphaherpesvirus 1)	Activity (MCF7)	Activity (A549)	Activity (BGC-823)	Activity (HCT-8)	Activity [1]	Activity (KETR3)	IC50 (Influenza A virus) [µM]	inhibition at 10 µM [2] [%]
NC(=O)C[C@@]1(O)C(=O)Nc2ccccc21	inactive	inactive	inactive	inactive	inactive	inactive	inactive	inactive		
O=C1c2ccccc2-n2c1nc1ccccc1c2=O	inactive	inactive	inactive	inactive	inactive	inactive	inactive	inactive		
O=C1/C(=C/c2c[nH]c3ccccc23)Nc2ccccc21	inactive	inactive	inactive	inactive	inactive	inactive	inactive	inactive		44
O=c1cc(-c2ccc(CO)o2)c2cc(O)ccc2[nH]1	inactive	inactive	inactive	inactive	inactive	inactive	inactive	inactive		
N#CC[C@H]1C(=O)Nc2cccc(O)c21	inactive	inactive	inactive	inactive	inactive	inactive	inactive	inactive		46
Oc1ccc2[nH]c(O)cc2c1	inactive	inactive	inactive	inactive	inactive	inactive	inactive	inactive		
CCOC(=O)C1=C[C@@H](OC(CC)CC)[C@H](NC(C)=O)[C@@H](N)C1 [OSELTAMIVIR]									1.23	
COc1cccc2c1[C@@](O)(CC#N)C(=O)N2	inactive	inactive	inactive	inactive	inactive	inactive	inactive	inactive		47
O=Cc1c[nH]c2ccccc12	inactive	inactive	inactive	inactive	inactive	inactive	inactive	inactive		
N#CCc1c[nH]c2cc(O[C@@H]3O[C@H](CO)[C@@H](O)[C@H](O)[C@H]3O)ccc12	inactive	inactive	inactive	inactive	inactive	inactive	inactive	inactive		
COC(=O)c1cc(OC)c2c(c1-c1c(CO)cc(OC)c3c1OCO3)OCO2 [BICYCLOL]										42
O=C1O[C@H]([C@@H](O)CO)[C@@H](O)[C@@]1(O)Cc1c[nH]c2ccccc12	inactive	inactive	inactive	inactive	inactive	inactive	inactive	inactive		
O=C1Nc2ccccc2/C1=C1/Nc2ccccc2C1=O	inactive	inactive	inactive	inactive	inactive	inactive	inactive	inactive		
COn1cc(CC#N)c2ccccc21	inactive	inactive	inactive	inactive	inactive	inactive	inactive	inactive		
O=C1C[C@@]2(O)c3ccccc3N3C(=O)c4ccccc4N1[C@H]32	inactive	inactive	inactive	inactive	inactive	inactive	inactive	inactive		

From ChEMBL document CHEMBL2062405, “Alkaloids from the root of Isatis indigotica” (J Nat Prod, 2012)
